Converted amounts (≈) assume the structure as drawn. Read-outs that look alike come from different tables or passages of the source.
What was measured:
[1] = test system: S. aureus (SA1199B); experiment: Minimal inhibitor concentration decreasing the ciprofloxacin MIC two fold, S. aureus SA1199B; format: cell-based; settings: Staphylococcus aureus, read-out: Effectivity IC50* S. Aureus
[2] = test system: wild type S. aureus SA1199; format: cell-based; settings: INF inhibitors 5 μg/ml, reserpine 20 μg/ml; for Frequency of emergence of variants resistant to two fold the MIC of ciprofloxacin, Spontaneous: SA1199, ciprofloxacin 1 μg/ml, 48 h; for Frequency of emergence of variants resistant to two fold the MIC of ciprofloxacin, Mutagenized: SA1199 mutagenized with ethylmethane sulfonate; for Fold inhibition of emergence of resistance: ciprofloxacin resistance, SA1199
Procedure: The effect of the inhibitors on the rate of emergence of in vitro selected single-step ciprofloxacin resistant mutants of wild type S. aureus SA1199 (Kaatz et al., 1990) was determined.
Ciprofloxacin resistance in first step in vitro selected mutants of S. aureus is predominantly due to specific point mutations in the targets of this drug, topoisomerase IV and gyrase (Cambau and Gutman, 1993; Ferrero et al., 1994).

[3] = test system: NA strain; experiment: Checkerboard synergy testing of inhibitors with ciprofloxacin, NA strain; format: cell-based, B. subtilis; settings: combination with ciprofloxacin
Procedure: (§1) Synergy testing was performed with the strain NA by checkerboard titration in microtiter plates using two-fold serial broth microdilution (Eliopoulus and Moellering Jr., 1996). […] Wells were assessed visually for growth after an 18 h incubation period. The Fractional Inhibitory Concentration (FIC) was calculated for each inhibitor and ethidium combination. The following formulae were used to calculate the FIC index: [drawing 43]
(§2) The inventors have quantitated the effects of the combination of the NorA inhibitors with ciprofloxacin, currently the most widely used fluoroquinolone and the second most prescribed antibiotic. Synergy testing was performed by checkerboard titration as described above for ethidium. […] All five compounds acted in a synergistic manner with ciprofloxacin, having FIC indices <0.5 (see Table 4). The inventors concluded that, similarly to their effects on the bacteriotoxicity of ethidium, each of the tested NorA inhibitors promotes the bacteriotoxicity of ciprofloxacin in a synergistic manner.

[4] = test system: HeLa cell line; experiment: Toxicity on HeLa cell line, Cell Titer 96 AQueous MTS-based assay; parameters: species or system human; settings: for Selectivity Index (Toxicity HeLa/Effectivity): HeLa IC50 / S. aureus effectivity IC50; for IC50: Homo sapiens, 72 h, HeLa, read-out: Toxicity HeLa IC50
Procedure: Here the inventors proposed to test the toxicity of the identified lead compounds on several human cell lines. To date, the inventors have determined the IC50 of the lead compounds for the HeLa cell line, the results of which are presented in Table 6. The toxicity of the compounds at concentrations ranging from 0.7 μg/ml to 100 μμg/ml was determined in a 96 well plate by adding the compounds to cells 24 h after seeding at a density of 10^4 per well. After incubation with the compounds for 3 days the effect on cell growth was determined using the Cell Titer 96 AQueous MTS-based assay (Promega, Madison, Wis.).

[5] = test system: S. pneumoniae (SPC2A); experiment: Minimal inhibitor concentration decreasing the ciprofloxacin MIC two fold, S. pneumoniae SPC2A; format: cell-based; settings: Streptococcus pneumoniae, read-out: IC50 S. Pneumoniae
[6] = test system: strain NA; experiment: Checkerboard synergy testing of inhibitors with ethidium, strain NA; format: cell-based, B. subtilis; settings: for FIC index: combination with ethidium, strain NA, 18 h, synergy = FIC index <0.5
Procedure: as §1
Synergy was defined as an FIC index of <0.5.

[7] = test system: S. aureus strain SA1199B; experiment: Checkerboard synergy testing of inhibitors with ciprofloxacin, S. aureus SA1199B; format: cell-based; settings: combination with ciprofloxacin
Procedure: as §1, §2

[8] = test system: most Gram negative microorganisms; settings: cited from earlier work
[9] = test system: most (≧90%) strains of the following microorganisms (Acinetobacter Iwoffi ... Yersinia enterocolitica); settings: most (≧90%) strains of listed microorganisms; cited from earlier work
[10] = test system: Streptococcus pneumoniae; settings: cited from earlier work
[11] = in vivo; cited from earlier work
[12] = molecular target: T1, NorA (Staphylococcus aureus, UniProt P0A0J7); experiment: Screen of DiverSet library for reversing the resistance of B. subtilis strain NA to the NorA substrate ethidium bromide; format: cell-based; settings: ranking or words
T1 construct: expressed in transfected cells; host or cells: Bacillus subtilis strain NA
Procedure: One library for the compounds identified in the present invention is DiverSet™ (ChemBridge Corp., Glenview, Ill.) The screening of this library consisting of 9,600 compounds, has been completed. The chemical library was screened for compounds effective, at concentrations of 20 μg/ml or less, in reversing the resistance of a specially created B. subtilis strain NA to the NorA substrate ethidium bromide. Although the present invention employed NorA as the multidrug transporter in the screening assays it will be understood by one of skill in the art that the compounds identified herein will likely have applicability to other multidrug transporters.
In an exemplary assay, in order to identify a candidate substance as an inhibitor of NorA, the B. subtilis strain NA may be used. […]
The DiverSet™ library of chemical compounds was screened for compounds effective, at concentrations of 20 μg/ml or less, in reversing the resistance of a specially created B. subtilis strain NA to the NorA substrate ethidium bromide. […] These three classes of compounds were evaluated using the activity data provided and the CoMFA fields generated to see if a 3D-QSAR relationship was present.

[13] = test system: most strains of certain other organisms (Gram negative aerobes); settings: most strains of listed Gram negative aerobes; cited from earlier work
[14] = test system: Gram-negative and Gram-positive organisms; settings: generally, except staphylococci; cited from earlier work
[15] = test system: most strains of the following organisms (Staphylococcus aureus, Staphylococcus epidermidis, various Gram negative bacteria); settings: most strains of listed organisms; cited from earlier work
[16] = SPC2A, minimal concentration required to decrease the MIC for ciprofloxacin by two fold, N.A. = not active at 5 μg/ml

T1 sequence (P0A0J7 whole entry): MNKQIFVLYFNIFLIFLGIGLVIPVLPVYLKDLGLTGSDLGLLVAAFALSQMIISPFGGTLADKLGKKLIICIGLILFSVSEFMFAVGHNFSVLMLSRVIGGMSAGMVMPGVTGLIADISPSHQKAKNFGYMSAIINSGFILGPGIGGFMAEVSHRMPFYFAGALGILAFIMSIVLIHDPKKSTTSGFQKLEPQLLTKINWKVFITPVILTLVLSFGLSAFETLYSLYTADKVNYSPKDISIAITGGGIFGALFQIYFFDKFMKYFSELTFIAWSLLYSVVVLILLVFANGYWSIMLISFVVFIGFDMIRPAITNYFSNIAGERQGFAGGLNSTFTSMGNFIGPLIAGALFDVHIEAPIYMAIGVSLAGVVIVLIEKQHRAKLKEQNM

Row | Structure (SMILES) | IC50 [1] | Frequency of emergence of variants resistant to two fold the MIC of ciprofloxacin, Spontaneous [2] | Frequency of emergence of variants resistant to two fold the MIC of ciprofloxacin, Mutagenized [2] | Fold inhibition of emergence of resistance [2] | FIC index NA [3] | Selectivity Index (Toxicity HeLa/Effectivity) [4] | IC50 ([4]; 3 days, MTS) | FIC index [6] | FIC index SA1199B [7] | other results
1 | O=[N+]([O-])c1ccc2[nH]c(-c3ccccc3)cc2c1 [INF 55] | 1.5 µg/mL (≈ 6.3 µM) | <5 × 10^−11 | <2.5 × 10^−10 | >50 | 0.25 | 27 | 40 µg/mL (≈ 168 µM) | 0.08 | 0.25 | IC50 [5, 16]: 5 µg/mL (≈ 21 µM)
2 | O=C(/C=C/c1ccccc1)Nc1cccc(/C=C/C(=O)c2ccccc2)c1 [INF 240] | 0.8 µg/mL (≈ 2.26 µM) | <5 × 10^−11 | <2.5 × 10^−10 | >50 | 0.12 | 2.5 | 2 µg/mL (≈ 5.66 µM) | 0.16 | 0.28 | 
3 | COc1ccccc1NC(=O)Nc1ccc2ccccc2c1 [INF 271] | 1.5 µg/mL (≈ 5.13 µM) | <5 × 10^−11 | <2.5 × 10^−10 | >50 | 0.12 | 12 | 18 µg/mL (≈ 61.6 µM) | 0.07 | 0.18 | IC50 [5, 16]: 2.5 µg/mL (≈ 8.55 µM)
4 | CC1(C)CC(=O)C2=C(C1)c1c(ccc3ccccc13)NC2c1cc(Br)ccc1O (stereo not shown) [INF 277] | 0.8 µg/mL (≈ 1.78 µM) | <5 × 10^−11 | <2.5 × 10^−10 | >50 | 0.15 | 6 |  | 0.09 | 0.28 | IC50 [4]: 5 µg/mL (≈ 11.2 µM); IC50 [5]: 5 µg/mL (≈ 11.2 µM)
5 | O=c1nc(SCc2ccccc2)[nH]c2c1[C@H](c1ccccc1)c1ccccc1O2 [INF 392] | 0.1 µg/mL (≈ 0.251 µM) | 5 × 10^−11 | 1 × 10^−9 | 25 | 0.28 | 450 |  | 0.14 | 0.15 | IC50 [4]: 45 µg/mL (≈ 113 µM); IC50 [5]: 2.5 µg/mL (≈ 6.27 µM)
6 | O=C(O)c1cn(C2CC2)c2cc(N3CCNCC3)c(F)cc2c1=O [ciprofloxacin] |  |  |  |  |  |  |  |  |  | MIC90 [8]: ~0.1 µg/mL (≈ 0.302 µM); in vitro minimal inhibitory concentrations (MICs) [9]: ≤ 1 µg/mL; MIC90 [10]: 1 to 2 µg/mL; achievable tissue concentration [11]: 4 µg/mL
7 | O=c1nc(SCc2ccccc2)[nH]c(O)c1C(c1ccccc1)c1ccccc1 [compound 41] |  |  |  |  |  |  |  |  |  | relative inhibitory activity in the initial screening [12]: most active lead compound in this category
8 | CCn1cc(C(=O)O)c(=O)c2cc(F)c(N3CCNCC3)nc21 [enoxacin] |  |  |  |  |  |  |  |  |  | in vitro minimum inhibitory concentrations (MICs) [13]: ≤ 2.0 µg/mL
9 | CC[n+]1c(-c2ccccc2)c2cc(N)ccc2c2ccc(N)cc21 [ethidium, ethidium bromide, reference compound] |  |  |  |  |  |  |  |  |  | MIC ([6]; Bacillus subtilis, read-out: MIC for the strain NA): 40 µg/mL
10 | CCn1cc(C(=O)O)c(=O)c2cc(F)c(N3CCNC(C)C3)c(F)c21 (stereo not shown) [lomefloxacin] |  |  |  |  |  |  |  |  |  | factor by which MBC exceeds MIC [14]: ≤ 2; in vitro MICs [15]: ≤ 2 µg/mL

From US20030125337A1, “Inhibitors of multidrug transporters” (priority 1998, published 2003)
